Legend:
[1] = biological target: T1, gp120/DC-SIGN-Fc (Homo sapiens, UniProt Q9NNX6); assay: gp120/Fc-DC-SIGN competition ELISA; type: binding
T1 construct: fused on or other part: Human IgG Fc fused on as a dimerising and detection handle (detected with anti-human IgG, Fc-gamma-specific antibody)
T1 sequence (Q9NNX6 250-404 limits assumed): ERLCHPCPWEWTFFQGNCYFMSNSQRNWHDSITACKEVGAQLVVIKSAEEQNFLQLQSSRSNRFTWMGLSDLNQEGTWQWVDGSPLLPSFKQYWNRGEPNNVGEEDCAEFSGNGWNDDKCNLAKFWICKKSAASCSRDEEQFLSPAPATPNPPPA
Method: It was then determined whether oligomannose dendrons are able to interfere with the binding between gp120 and DC-SIGN, which is likely to be a key step for dendritic cell-mediated CD4 T cell HIV infection. Gp120/Fc-DC-SIGN ELISA was performed, in a similar setting as gp120/2G12 ELISA, to evaluate the inhibition activity of glycodendrons 14 and 17.
Competition ELISA for Fc-DC-SIGN. DC-SIGN competitions were done with 1.5 μg/ml Fc-DC-SIGN as described above with a few modifications since DC-SIGN is a C-type lectin that requires Ca^2+ for binding. A Tris (10 mM, pH7.8) buffer containing NaCl (150 mM), i.e., TBS, replaced PBS in the abovementioned buffers used for coating, blocking and washing. After the initial wash step, CaCl2 (10 mM) was included in the blocking solution and all subsequent incubation and wash buffers until substrate addition. DC-SIGN-Fc binding was detected with an alkaline phosphatase-conjugated goat anti-human IgG, Fcγ-specific, Ab (Jackson ImmunoResearch Laboratories, Inc.) diluted 1:1000.

[2] = biological target: 2G12 complex; assay: KD,surf of 2G12 complex on glycan-printed normal-NHS-density slide; type: binding; details: immobilized on normal-NHS-density slide; saturated value
Method: To further test its multivalent efficacy, 17 was immobilized onto a normal-NHS-density slide (FIG. 3d) at varying printing concentrations.
Second generation Man9 dendron 17 on normal NHS density slide: Similar procedure as for normal density Man4 slide was used. Derivative of 17 with a linker connecting free amine was used for printing. The printing concentrations are 100, 80, 60, 40, 20, 10, 8, 6, 4, 2, 1, 0.8, 0.6, 0.4, 0.2, 0.1, 0.08, 0.06, 0.04, and 0.02 μM. The KD,surf of 2G12 complex was obtained (see Table 4) as previously described.
Determination of KD,surf of glycodendron 17. The procedure is the same as that disclosed in Liang et al., “Quantitative analysis of carbohydrate-protein interactions using glycan microarrays: determination of surface and solution dissociation constants.” J Am Chem Soc 129:11177-11184 (2007), which is hereby incorporated by reference as if fully disclosed herein.

Compound	IC50 [1] [mM]	inhibition activity range ([1]; gp120/Fc-DC-SIGN ELISA)	Kd [2] [mM]
O=C[C@@H](O)[C@@H](O)[C@H](O)[C@H](O)CO [D-Mannose, reference compound]	8.5	millimolar range	
Man9 [Compound 2]			0.00083
